Assay results: patent US20100280052A1, “USE OF ANTIVIRALS TO TREAT CMV-RELATED CONDITIONS” (priority 2007, published 2010)

Assays:
[1] = test system: CD8+ T cells; experiment: CD57 antibody staining of peripheral blood CD8+ T cells (Example 1, FIG. 16); assay type: in vivo, human; details: CMV seropositive donors, patients taking drug vs healthy controls
Experimental: (§1) The CMV-specific immune response was measured in a cohort of CMV seropositive or seronegative donors who are taking acyclovir or valaciclovir. This was compared to an age-matched control cohort. […] Comprehensive analysis of (1) the total T cell profile of these donors, and (2) their CMV-specific response, was performed. The results were compared to an age-matched control group of CMV seropositive or seronegative donors.

[2] = test system: CMV-specific T cells; experiment: CMV-specific T cells detected by Interferon-gamma expression in blood of patients taking ACV or VCV (Example 1, FIGS. 9, 10); assay type: in vivo, human
[3] = test system: CD4+ T cells; experiment: CD27, CD28, CD57 antibody staining of peripheral blood CD4+ T cells (Example 1, FIGS. 12-15); assay type: in vivo, human; details: CMV-seropositive patients taking ACV or VCV vs healthy donors; for percentage of CD4+ T cells which have lost expression of CD27: FIGS. 12, 13; for percentage of CD4+ T cells which have lost expression of CD28: FIGS. 12, 14; for percentage of CD4+ T cells which have gained expression of CD57: FIGS. 12, 15
Experimental: as §1
In FIG. 12, CD4+ T cells in peripheral blood of 35 CMV-seropositive or seronegative healthy donors were stained with antibodies to CD27, CD28 or CD57. These are shown on the left panel. A similar analysis was performed on patients taking acyclovir or valacyclovir (right hand panel). It can be seen that the percentage of CD4 + T cells which have lost expression of CD27 or CD28, or have gained expression of CD57, is lower in CMV-seropositive patients who are taking ACV or VCV in comparison to healthy donors.
Referring to FIG. 13, CD4+ T cells in peripheral blood of 25 healthy donors or patients taking ACV or VCV were stained with antibodies to CD27.
Referring to FIG. 14, CD4+ T cells in peripheral blood of 25 healthy donors or patients taking ACV or VCV were stained with antibodies to CD28.
Referring to FIG. 15, CD4+ T cells in peripheral blood of 25 healthy donors or patients taking ACV or VCV were stained with antibodies to CD57.

[4] = cited from earlier work; for side effects: at common doses
[5] = test system: CMV-specific T cells; experiment: Elispot analysis of antigen-specific T cells after CMV lysate stimulation (Example 1, FIG. 11); assay type: in vivo, human; details: patients taking ACV or VCV vs healthy CMV seropositive donors
Experimental: as §1
A reduced Elispot response to CMV is seen in patients taking ACV or VCV.

[6] = test system: CMV-specific CD4+ T cells; experiment: CD4+ T cells producing interferon-gamma after CMV lysate stimulation, single individual (Example 2, FIG. 17); assay type: in vivo, human; details: before, 3 and 14 months after treatment with acyclovir 40 mg b.d.
Text: Referring to FIG. 17, the blood was stimulated with CMV lysate, and the percentage of CD4+ T cells which produce interferon-gamma in response to antigen measured. It can be seen that this percentage was reduced on treatment.

[7] = test system: CMV; details: cited from earlier work
[8] = test system: CMV-specific T cells; experiment: Interferon-gamma Elispot analysis of CMV-specific T cells, single individual (Example 2, FIG. 18); assay type: in vivo, human; details: before, 3 and 14 months after treatment with acyclovir 40 mg b.d., CMV lysate or pp65 or IE-1 peptide pools
Text: Finally, referring to FIG. 18, the blood was stimulated with CMV lysate, or peptide pools from CMV pp65 or IE-1, and the number of CMV-specific T cells was detected using interferon-gamma Elispot analysis. It can be seen that the magnitude of this response was reduced by treatment.

[9] = test system: CMV; details: ganciclovir and valganciclovir compared with acyclovir and valacyclovir; cited from earlier work
[10] = prodrug compared with penciclovir; cited from earlier work
[11] = FIG. 9, CMV seropositive patients on ACV 400 mg b.d. or VCV 500 mg o.d. or b.d. vs healthy control CMV seropositive donors, CMV lysate or pp65 and IE-1 peptide pools
[12] = FIG. 10, time-dependent effect, ACV 400 mg b.d. or VCV 500 mg o.d. or b.d., CMV lysate

Structure (SMILES)	percentage of CD8+ T cells which express CD57 [1]	number of CMV-specific T cells (Interferon-gamma expression) [2, 11]	number of CMV-specific T cells (Interferon-gamma expression) [2, 12]	percentage of CD4+ T cells which have lost expression of CD27 [3]	percentage of CD4+ T cells which have lost expression of CD28 [3]	percentage of CD4+ T cells which have gained expression of CD57 [3]	side effects [4]	Elispot response to CMV [5]	activity against CMV [9]	other results
CC(C)[C@H](N)C(=O)OCCOCn1cnc2c(=O)[nH]c(N)nc21 [valacyclovir]	reduced	reduced	reduced	reduced	reduced	reduced	nausea, vomiting, diarrhoea and/or headaches	reduced		percentage of CD4+ T cells which have lost expression of CD27 ([3]; listed as VCV): lower; percentage of CD4+ T cells which have lost expression of CD28 ([3]; listed as VCV): lower; percentage of CD4+ T cells which have gained expression of CD57 ([3]; listed as VCV): lower
Nc1nc2c(ncn2COCCO)c(=O)[nH]1 [acyclovir, 9-(2-hydroxyethoxymethyl)guanine]	reduced	reduced	reduced	reduced	reduced	reduced	nausea, vomiting, diarrhoea and/or headaches	reduced		percentage of CD4+ T cells which produce interferon-gamma in response to antigen [6]: reduced; activity against CMV replication in vitro [7]: minimal activity; percentage of CD4+ T cells which have lost expression of CD27 ([3]; listed as ACV): lower; percentage of CD4+ T cells which have lost expression of CD28 ([3]; listed as ACV): lower; percentage of CD4+ T cells which have gained expression of CD57 ([3]; listed as ACV): lower; number of CMV-specific T cells (magnitude of interferon-gamma Elispot response) [8]: reduced
CC(C)[C@H](N)C(=O)OCC(CO)OCn1cnc2c(=O)nc(N)[nH]c21 (stereo partly shown) [valganciclovir]									markedly improved activity	
CC(=O)OCC(CCn1cnc2cnc(N)nc21)COC(C)=O [Famciclovir]										bioavailability [10]: improved bioavailability
Nc1nc(O)c2ncn(COC(CO)CO)c2n1 [ganciclovir]									markedly improved activity	carcinogenicity, teratogenicity, mutagenicity ([4]; human): potential human carcinogen, teratogen, and mutagen
Nc1nc2c(ncn2CCC(CO)CO)c(=O)[nH]1 [penciclovir]									minimal activity	side effects compared with acyclovir ([4]; treatment of herpesvirus infections): fewer side effects
